Measured values as given in patent US20260263456A1, “TADALAFIL GASTRIC-SOLUBLE RAPID-RELEASE SOLID DISPERSION, TABLET, AND USE THEREOF” (Shenzhen Hanhui Pharmaceutical Technology Co., Ltd., priority 2023, published 2026).
In brackets after ≈: the same amount, converted by molar mass.

Key:
[1] = Solubility of tadalafil API in various solvents; assay type: physicochemical; conditions: thermodynamic from solid, 25° C. and 60° C.
From the text: A suitable amount of tadalafil was weighed and dissolved in various commonly used organic solvents to identify the most appropriate solvents for establishing UV methodology. The solvents utilized for preparing solid dispersions, along with the solubility of tadalafil, the active pharmaceutical ingredient, in different solvents, are presented in Table 4 below.

[2] = Polymer and surfactant screening: solubility of solid dispersions in pH 1.0 and pH 6.8 media; assay type: physicochemical; conditions: API alone, 2 mg/mL, one value across 5 min and 30 min
Procedure: In this implementation example, a micro-scale rotary evaporation method was employed to screen various types of polymers and surfactants, specifically in the context of the active pharmaceutical ingredient (API) ratio of polymer to surfactant.
Acetone was utilized to prepare a stock solution of the active pharmaceutical ingredient at a concentration of 5 mg/mL, a polymer stock solution at 10 mg/mL, and a surfactant stock solution at 10 mg/mL. These solutions were evenly mixed in two identical portions, then centrifuged and dried to create the solid dispersion.
To each sample tube, 1 mL of pH 1.0 and pH 6.8 media was added, and the samples were vortexed at room temperature to ensure complete dispersion. Samples were collected at 5 minutes and 30 minutes, then centrifuged, diluted, and the absorbance was measured to calculate solubility.

With CN1CC(=O)N2[C@H](c3ccc4c(c3)OCO4)c3[nH]c4ccccc4c3C[C@@H]2C1=O [Tadalafil] the solubility ([1]; organic solvent or mixture, Acetone) was 10.2 to 16.9 mg/mL (≈ 26.1 to 43.5 mM), the solubility ([1]; organic solvent or mixture, Acetonitrile) was 16 to 23.9 mg/mL (≈ 41 to 61.5 mM) and the solubility ([1]; organic solvent or mixture, Anhydrous ethanol) was less than 10.8 mg/mL. It also gave a solubility ([1]; organic solvent or mixture, Dichloromethane) of less than 10.8 mg/mL, a solubility ([1]; organic solvent or mixture, Tetrahydrofuran) of 23.8 to 47.6 mg/mL (≈ 61.2 to 122 mM) and a solubility ([1]; pH 6.8 medium, aqueous buffer, pH 6.8) of less than 8.04 mg/mL. For the same molecule, the “pH 1.0(Solubility mg/mL)” value ([2]; pH 1.0) was 0.002 mg/mL and the “pH 6.8(Solubility mg/mL)” value ([2]; pH 6.8) was 0.027 mg/mL.
